Key:
Format in all cases: cell-based
ORAI1 (CRAC channel) = target: T1, ORAI1 (CRAC channel) (Homo sapiens, UniProt Q96D31); test: whole-cell patch clamp of ICRAC in transfected HEK293T cells
T1 construct: human ORAI1 (hORAI1) co-transfected with hSTIM1 in HEK293T cells; with STIM1

KCa3.1 = target: T2, KCa3.1 (Homo sapiens, UniProt O15554); test: whole-cell patch clamp of IKCa3.[…] in stable HEK293T cells; conditions: HEK-293T
T2 construct: gene KCNN4

KV1.3 = target: T3, KV1.3 (Homo sapiens, UniProt P22001); test: whole-cell patch clamp of IKV1.[…] in Jurkat T cells
T3 construct: gene KCNA3; KV1.3 current in Jurkat T cells
T3 sequence (P22001 whole entry): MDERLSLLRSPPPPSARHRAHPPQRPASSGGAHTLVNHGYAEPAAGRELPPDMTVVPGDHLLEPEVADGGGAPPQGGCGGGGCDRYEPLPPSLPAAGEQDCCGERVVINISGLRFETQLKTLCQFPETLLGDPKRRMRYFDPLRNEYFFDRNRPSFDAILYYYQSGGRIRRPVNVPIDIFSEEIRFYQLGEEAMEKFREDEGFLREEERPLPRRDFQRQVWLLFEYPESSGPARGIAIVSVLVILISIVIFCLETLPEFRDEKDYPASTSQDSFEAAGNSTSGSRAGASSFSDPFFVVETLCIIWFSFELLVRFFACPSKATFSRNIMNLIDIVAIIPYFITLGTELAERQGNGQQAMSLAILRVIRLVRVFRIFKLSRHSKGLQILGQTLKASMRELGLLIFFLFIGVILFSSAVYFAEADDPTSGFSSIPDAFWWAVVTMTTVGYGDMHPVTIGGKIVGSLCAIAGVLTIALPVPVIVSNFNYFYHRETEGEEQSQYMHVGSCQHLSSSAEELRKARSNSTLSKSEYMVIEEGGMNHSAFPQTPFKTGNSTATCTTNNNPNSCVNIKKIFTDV

T1 sequence (Q96D31 whole entry): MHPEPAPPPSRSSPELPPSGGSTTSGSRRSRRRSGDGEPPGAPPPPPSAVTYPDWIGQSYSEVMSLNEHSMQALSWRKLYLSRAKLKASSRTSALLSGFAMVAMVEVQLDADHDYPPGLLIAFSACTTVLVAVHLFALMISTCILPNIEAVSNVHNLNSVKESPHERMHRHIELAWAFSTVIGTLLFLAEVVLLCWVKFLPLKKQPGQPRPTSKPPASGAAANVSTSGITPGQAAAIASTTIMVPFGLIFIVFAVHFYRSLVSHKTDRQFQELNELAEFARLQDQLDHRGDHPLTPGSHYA
T1 sequence (Q13586 23-685, further chain): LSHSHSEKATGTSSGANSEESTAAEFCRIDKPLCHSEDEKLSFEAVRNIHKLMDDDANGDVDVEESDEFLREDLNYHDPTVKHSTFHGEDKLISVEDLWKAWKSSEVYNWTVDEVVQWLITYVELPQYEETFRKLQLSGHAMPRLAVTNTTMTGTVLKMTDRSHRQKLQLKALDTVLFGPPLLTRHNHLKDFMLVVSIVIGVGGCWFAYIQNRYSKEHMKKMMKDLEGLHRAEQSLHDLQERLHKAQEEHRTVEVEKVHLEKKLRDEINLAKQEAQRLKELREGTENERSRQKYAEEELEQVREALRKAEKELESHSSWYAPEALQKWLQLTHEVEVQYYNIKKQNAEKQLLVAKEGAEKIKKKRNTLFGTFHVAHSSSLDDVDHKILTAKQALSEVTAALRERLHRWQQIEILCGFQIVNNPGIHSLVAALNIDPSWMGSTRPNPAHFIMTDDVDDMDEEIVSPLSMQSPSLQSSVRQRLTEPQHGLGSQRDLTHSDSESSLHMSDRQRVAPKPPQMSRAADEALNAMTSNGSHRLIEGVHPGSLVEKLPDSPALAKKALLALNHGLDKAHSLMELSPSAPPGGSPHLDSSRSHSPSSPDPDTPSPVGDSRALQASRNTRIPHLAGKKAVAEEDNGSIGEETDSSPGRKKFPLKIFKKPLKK
T2 sequence (O15554 whole entry): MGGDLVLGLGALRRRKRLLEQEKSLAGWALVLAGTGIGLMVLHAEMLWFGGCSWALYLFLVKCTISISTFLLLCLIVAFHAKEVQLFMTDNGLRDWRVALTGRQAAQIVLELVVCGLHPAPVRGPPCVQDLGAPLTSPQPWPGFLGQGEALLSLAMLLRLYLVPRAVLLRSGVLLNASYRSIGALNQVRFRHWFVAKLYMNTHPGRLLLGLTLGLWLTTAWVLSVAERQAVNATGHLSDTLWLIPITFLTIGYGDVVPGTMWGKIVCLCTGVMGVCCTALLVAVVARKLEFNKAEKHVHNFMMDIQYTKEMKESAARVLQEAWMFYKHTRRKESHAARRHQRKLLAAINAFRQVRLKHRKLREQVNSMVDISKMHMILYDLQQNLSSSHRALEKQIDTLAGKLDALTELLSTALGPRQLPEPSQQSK

Q: For C=C(C)[C@@H]1CCC2=CC(=O)C[C@@H](C)[C@]2(C)C1 [nootkatone], which IC50 (ORAI1 (CRAC channel)) is on record?
A: ~12.6 µM

Q: What about the inhibition at 100 µM (KCa3.1) of the same compound?
A: ~20%

Q: And the IC50 (KV1.3)?
A: 10.8 µM

— PMC11121628, “Regulation of T Lymphocyte Functions through Calcium Signaling Modulation by Nootkatone” (International Journal of Molecular Sciences, 2024)
